pIC50: −log10 of the molar value.
System: human PBMC, CCR5-tropic HIV-1 replication, RT activity
Experiment: inhibitors of CCR5-tropic HIV-1 replication in PBMCs, dose response, cell-based, human PBMC, R5-tropic strain, set 3 (AID 504626)

SMILES: Cc1c2c(=O)n(-c3nc4ccccc4s3)nc-2cc(O)n1Cc1ccccc1
- pIC50: 5.80
